Experimental data published in patent publication US20090238808A1, “Process for the identification of novel enzyme interacting compounds” (priority 2005, published 2009).
Blank lines part the entries; values can stand above or below the compound they belong to.

Columns and labels:
[1] = tested on: LIMK1ps; test: Kinobeads elution with test compound, mouse brain lysate, MS; type: binding; settings: kinase released from kinobeads by specific elution
Outline: (§1)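 Proteins captured from mouse brain lysate onto kinobeads are displaced with unmodified compound at 1.0 mM (30 min, 4° C), with 2% DMSO or DMF buffer as the control. Eluted proteins are identified by mass spectrometry after gel separation.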

[2] = molecular target: T1, GSK3alpha (Homo sapiens, UniProt P49840); test: In-lysate competition binding with kinobeads, Jurkat lysate, Western blot; settings: Jurkat lysate preincubated with 0.025-6.0 μM compound
T1 construct: Aliqots of Jurkat lysate (10 mg protein) were incubated with different Bis VIII concentrations; endogenous in cells; host or cells: Jurkat clone E6-1 lysate
T1 sequence (P49840 whole entry): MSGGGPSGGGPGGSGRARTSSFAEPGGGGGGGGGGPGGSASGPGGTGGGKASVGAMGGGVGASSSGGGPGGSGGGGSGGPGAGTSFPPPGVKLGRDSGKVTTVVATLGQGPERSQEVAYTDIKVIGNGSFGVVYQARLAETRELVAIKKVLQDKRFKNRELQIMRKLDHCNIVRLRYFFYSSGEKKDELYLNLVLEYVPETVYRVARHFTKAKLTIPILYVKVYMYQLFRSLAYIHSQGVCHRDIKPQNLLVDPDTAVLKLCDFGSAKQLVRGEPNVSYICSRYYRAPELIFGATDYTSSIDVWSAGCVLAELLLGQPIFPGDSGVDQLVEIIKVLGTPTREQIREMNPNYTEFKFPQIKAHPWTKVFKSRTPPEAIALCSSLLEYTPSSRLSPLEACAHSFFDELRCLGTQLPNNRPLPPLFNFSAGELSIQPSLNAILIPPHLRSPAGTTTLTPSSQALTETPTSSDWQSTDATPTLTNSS
Description: (§2) This example illustrates competition binding in cell lysates (see particularly the third aspect of the invention). A test compound, Bisindolylmaleimide VIII (Bis VIII, a well known kinase inhibitor; Davies et al., 2000. Specificity and mechanism of action of some commonly used protein kinase inhibitors. Biochemical Journal 351 (Pt 1): 95-105) was added to a cell lysate thereby allowing the test compound to bind to the target proteins in the lysate. Then the lysate was contacted with the kinobeads affinity matrix to capture remaining free target proteins. The proteins bound to the kinobeads matrix were then eluted with detergent-containing buffer, separated on a SDS-polyacryamide gel and analyzed by immunodetection (Western blots) or mass spectrometry detection.
(§3) For Western blot analysis proteins bound to the affinity matrix were eluted from the affinity matrix and subsequently separated by SDS-Polyacrylamide gel elecrophoresis and transferred to a blotting membrane. Individual kinases were detected with specific antibodies against GSK3alpha, GSK3beta and ITK (FIG. 4A). […] For GSK3beta the signal was quantified and plotted against the Bis VIII concentration added to the cell lysate (FIG. 4B).
(§4) Aliqots of Jurkat lysate (10 mg protein) were incubated with different Bis VIII concentrations for one hour at 4° C. (0.025 μM, 0.074 μM, 0.22 μM, 0.67 μM, 2.0 μM and 6.0 μM final concentration of Bis VIII). To this end Bis VIII solutions were prepared in 100% DMSO as solvent that corresponded to 200 fold desired final Bis VIII concentration (Bis VIII from Alexis Biochemicals cat. number ALX 270-056). Five μl of these solutions were added to 1 ml of lysate resulting in the indicated final concentrations. For a control experiment 5 μl of DMSO without Bis VIII were used.
(§5) To each preincubated lysate sample 40 μl of kinobeads (see example 1) were added and incubated for one hour at 4° C. During the incubation the tubes were rotated on an end-over-end shaker (Roto Shake Genie, Scientific Industries Inc.). […]

[3] = molecular target: T2, GSK3beta (Homo sapiens, UniProt P49841); test: as above; settings: Jurkat lysate preincubated with 0.025-6.0 μM compound
T2 construct: Aliqots of Jurkat lysate (10 mg protein) were incubated with different Bis VIII concentrations; endogenous in cells; host or cells: Jurkat clone E6-1 lysate
T2 sequence (P49841 whole entry): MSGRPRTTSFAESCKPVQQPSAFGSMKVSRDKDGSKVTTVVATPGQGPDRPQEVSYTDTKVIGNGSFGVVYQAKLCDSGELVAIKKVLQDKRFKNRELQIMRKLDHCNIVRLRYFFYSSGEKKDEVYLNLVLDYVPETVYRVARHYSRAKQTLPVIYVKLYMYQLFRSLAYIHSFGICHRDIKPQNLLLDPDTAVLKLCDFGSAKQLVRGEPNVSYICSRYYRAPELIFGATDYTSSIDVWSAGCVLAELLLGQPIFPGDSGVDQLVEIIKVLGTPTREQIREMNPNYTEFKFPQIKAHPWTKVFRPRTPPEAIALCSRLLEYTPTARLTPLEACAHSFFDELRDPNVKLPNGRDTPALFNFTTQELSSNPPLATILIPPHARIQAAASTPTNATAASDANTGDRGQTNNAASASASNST
Description: as §2, §3, §4, §5

[4] = molecular target: T3, ITK (Homo sapiens, UniProt Q08881); test: as above; settings: Jurkat lysate preincubated with 0.025-6.0 μM compound
T3 construct: Aliqots of Jurkat lysate (10 mg protein) were incubated with different Bis VIII concentrations; endogenous in cells; host or cells: Jurkat clone E6-1 lysate
T3 sequence (Q08881 whole entry): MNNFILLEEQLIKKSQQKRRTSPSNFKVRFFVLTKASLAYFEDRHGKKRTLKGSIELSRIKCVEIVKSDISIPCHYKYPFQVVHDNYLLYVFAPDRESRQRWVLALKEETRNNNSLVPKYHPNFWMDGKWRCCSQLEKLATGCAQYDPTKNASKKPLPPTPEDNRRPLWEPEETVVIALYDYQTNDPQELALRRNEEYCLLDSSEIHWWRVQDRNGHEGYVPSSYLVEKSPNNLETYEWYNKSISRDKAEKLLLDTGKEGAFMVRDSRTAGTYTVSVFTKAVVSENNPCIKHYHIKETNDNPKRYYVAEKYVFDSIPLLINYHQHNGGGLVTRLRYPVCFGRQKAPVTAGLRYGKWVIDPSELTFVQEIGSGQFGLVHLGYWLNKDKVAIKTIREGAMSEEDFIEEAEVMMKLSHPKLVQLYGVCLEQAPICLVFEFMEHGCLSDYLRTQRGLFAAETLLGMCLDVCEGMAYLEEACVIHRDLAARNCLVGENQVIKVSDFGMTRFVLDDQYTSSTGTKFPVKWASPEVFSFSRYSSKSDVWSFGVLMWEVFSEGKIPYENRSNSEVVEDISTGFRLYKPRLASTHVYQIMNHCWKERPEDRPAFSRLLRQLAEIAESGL
Description: as §2, §3, §4, §5

[5] = molecular target: T4, PAK5 (Mus musculus, UniProt Q8C015); test: Kinobeads elution with test compound, mouse brain lysate, MS; type: binding; settings: kinase released from kinobeads by specific elution
T4 construct: from tissue; host or cells: mouse brain
T4 sequence (Q8C015 whole entry): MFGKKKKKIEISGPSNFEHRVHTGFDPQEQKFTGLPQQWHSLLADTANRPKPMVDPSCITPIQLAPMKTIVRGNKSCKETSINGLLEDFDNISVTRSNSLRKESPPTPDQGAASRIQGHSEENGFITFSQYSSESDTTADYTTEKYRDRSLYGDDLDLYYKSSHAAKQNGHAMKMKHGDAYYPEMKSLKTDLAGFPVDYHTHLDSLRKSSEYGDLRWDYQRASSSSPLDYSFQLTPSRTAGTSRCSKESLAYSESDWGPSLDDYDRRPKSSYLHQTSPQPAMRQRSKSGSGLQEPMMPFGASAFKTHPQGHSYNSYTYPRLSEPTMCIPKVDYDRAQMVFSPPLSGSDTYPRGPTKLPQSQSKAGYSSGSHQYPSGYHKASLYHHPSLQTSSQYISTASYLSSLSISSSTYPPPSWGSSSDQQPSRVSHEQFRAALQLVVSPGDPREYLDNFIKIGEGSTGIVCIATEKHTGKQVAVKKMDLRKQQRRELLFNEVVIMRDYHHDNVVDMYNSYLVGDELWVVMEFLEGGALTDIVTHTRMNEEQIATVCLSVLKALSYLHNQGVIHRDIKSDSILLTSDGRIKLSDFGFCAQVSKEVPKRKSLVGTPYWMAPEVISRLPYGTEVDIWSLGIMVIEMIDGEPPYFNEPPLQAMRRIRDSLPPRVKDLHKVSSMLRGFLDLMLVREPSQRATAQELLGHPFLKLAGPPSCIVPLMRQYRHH
Outline: as §1

[6] = molecular target: T5, PKCa (Mus musculus, UniProt P20444); test: as above; type: binding; settings: kinase released from kinobeads by specific elution
T5 construct: from tissue; host or cells: mouse brain
Outline: as §1

[7] = molecular target: T6, TBK1 (Mus musculus, UniProt Q9WUN2); test: as above; type: binding; settings: kinase released from kinobeads by specific elution
T6 construct: from tissue; host or cells: mouse brain
T6 sequence (Q9WUN2 whole entry): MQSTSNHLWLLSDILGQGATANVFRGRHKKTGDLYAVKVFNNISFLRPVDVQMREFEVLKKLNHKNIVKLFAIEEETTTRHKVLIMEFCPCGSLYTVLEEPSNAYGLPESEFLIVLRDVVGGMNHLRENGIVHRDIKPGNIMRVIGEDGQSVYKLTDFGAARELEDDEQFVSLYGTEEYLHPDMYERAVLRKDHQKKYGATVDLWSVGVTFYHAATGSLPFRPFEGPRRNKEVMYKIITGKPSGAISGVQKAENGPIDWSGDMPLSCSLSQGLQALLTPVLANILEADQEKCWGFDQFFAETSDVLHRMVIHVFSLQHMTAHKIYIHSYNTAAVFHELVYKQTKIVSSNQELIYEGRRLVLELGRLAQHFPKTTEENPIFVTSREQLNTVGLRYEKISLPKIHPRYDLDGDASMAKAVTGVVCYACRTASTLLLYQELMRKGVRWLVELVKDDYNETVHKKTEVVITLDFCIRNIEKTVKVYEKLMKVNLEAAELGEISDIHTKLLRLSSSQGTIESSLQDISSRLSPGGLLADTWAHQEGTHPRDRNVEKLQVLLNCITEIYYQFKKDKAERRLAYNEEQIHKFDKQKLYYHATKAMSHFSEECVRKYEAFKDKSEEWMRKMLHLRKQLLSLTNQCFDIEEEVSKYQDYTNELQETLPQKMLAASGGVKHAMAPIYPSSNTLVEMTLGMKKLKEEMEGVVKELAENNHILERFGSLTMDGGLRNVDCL
Outline: as §1

[8] = molecular target: T7, LYN (Mus musculus, UniProt P25911); test: as above; type: binding; settings: kinase released from kinobeads by specific elution
T7 construct: from tissue; host or cells: mouse brain
T7 sequence (P25911 whole entry): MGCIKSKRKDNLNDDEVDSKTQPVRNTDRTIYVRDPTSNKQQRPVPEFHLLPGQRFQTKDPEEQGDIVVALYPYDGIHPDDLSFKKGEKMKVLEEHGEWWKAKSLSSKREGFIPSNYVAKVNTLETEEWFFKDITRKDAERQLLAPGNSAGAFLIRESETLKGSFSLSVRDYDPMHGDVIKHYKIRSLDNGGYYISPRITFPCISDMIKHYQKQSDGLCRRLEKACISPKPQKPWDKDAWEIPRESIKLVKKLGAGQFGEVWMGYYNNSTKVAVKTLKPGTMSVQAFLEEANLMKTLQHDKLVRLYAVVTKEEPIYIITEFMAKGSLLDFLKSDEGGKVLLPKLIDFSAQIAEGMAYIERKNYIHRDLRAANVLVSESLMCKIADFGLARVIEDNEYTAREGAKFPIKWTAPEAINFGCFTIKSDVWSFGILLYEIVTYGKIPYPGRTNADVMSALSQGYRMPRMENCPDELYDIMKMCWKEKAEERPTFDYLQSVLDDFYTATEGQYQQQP
Outline: as §1

Compound: NCc1ccc(Nc2ncc(F)c(Nc3ccccc3)n2)cc1 [CZC00008004]
- mass spectrometry score, LIMK1ps [1]: 186
- number of identified peptides, LIMK1ps [1]: 4

- binding of GSK3alpha to kinobeads, Western blot [2]: prevented binding
- binding of GSK3beta to kinobeads, Western blot [3]: prevented binding
- binding of ITK to kinobeads, Western blot [4]: not binding of ITK
Compound: Cn1cc(C2=C(c3cn(CCCN)c4ccccc34)C(=O)NC2=O)c2ccccc21 [Bis VIII, Bisindolylmaleimide VIII]

Compound: CNC1CC2OC(C)(C1OC)n1c3ccccc3c3c4c(c5c6ccccc6n2c5c31)C(=O)NC4 (stereo not shown) [CZC9280]
- mass spectrometry score, PAK5 [5]: 64
- number of identified peptides, PAK5 [5]: 1
- mass spectrometry score, PKCa [6]: 64
- number of identified peptides, PKCa [6]: 1
- mass spectrometry score, TBK1 [7]: 48
- number of identified peptides, TBK1 [7]: 1

- mass spectrometry score, LYN [8]: 134
- number of identified peptides, LYN [8]: 6
Compound: CCCCCCCCCCCCOS(=O)(=O)[O-].[Na+] [SDS]
